Results taken from ChEMBL document CHEMBL4765450, “The components and activities analysis of a novel anticoagulant candidate dHG-5” (Eur J Med Chem, 2020).
Activity calls are given as the source filed them. The calls are words filed in the database; no cut-off is given here.

Assays:
[1] = target: T1, Coagulation factor IX/VIII (Homo sapiens) (UniProt P00740+P00451); test: Inhibition of human citrated plasma iXase (factor 8a-factor 9a complex) assessed as activity potency of oligosaccharides multiplied by the percentage of oligosaccharides in dHG-5 preincubated for 2 mins followed by factor 10 addition and measured after 1 min by FXa chromogenic substrate SXa-11 based assay relative to dHG-5; type: protein-complex assay; details: time 3.0 min
[2] = target: T1, Coagulation factor IX/VIII (Homo sapiens); test: Inhibition of human citrated plasma iXase (factor 8a-factor 9a complex) preincubated for 2 mins followed by factor 10 addition and measured after 1 min by FXa chromogenic substrate SXa-11 based assay relative to dHG-5; type: protein-complex assay; details: time 3.0 min
[3] = target: Prothrombin (Homo sapiens) (UniProt P00734); test: Inhibition of factor 2a (unknown origin) at IC90 preincubated for 1 min followed by chromogenic substrate addition and measured for 2 mins in presence of AT-III; details: time 3.0 min
[4] = target: T2, Coagulation factor VII (Homo sapiens) (UniProt P08709); test: Inhibition of factor 7a (unknown origin) at IC50 using pefachrome factor VIIa as substrate preincubated for 1 min followed by chromogenic substrate addition and measured for 2 mins in presence of AT-III; details: time 3.0 min
T2 sequence (whole entry): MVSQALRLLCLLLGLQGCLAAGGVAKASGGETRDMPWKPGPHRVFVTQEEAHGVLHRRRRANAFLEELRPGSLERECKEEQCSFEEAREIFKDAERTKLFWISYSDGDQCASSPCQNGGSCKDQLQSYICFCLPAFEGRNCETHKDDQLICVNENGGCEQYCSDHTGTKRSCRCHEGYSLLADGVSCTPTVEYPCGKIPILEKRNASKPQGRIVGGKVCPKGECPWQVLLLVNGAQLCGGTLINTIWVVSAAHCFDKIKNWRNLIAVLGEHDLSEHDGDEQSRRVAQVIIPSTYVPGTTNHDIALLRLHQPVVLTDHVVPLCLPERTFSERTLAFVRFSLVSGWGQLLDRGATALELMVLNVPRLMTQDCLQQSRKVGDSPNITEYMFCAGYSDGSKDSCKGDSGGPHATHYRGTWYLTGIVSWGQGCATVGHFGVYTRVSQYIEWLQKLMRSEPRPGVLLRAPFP

[5] = target: Coagulation factor X (Homo sapiens) (UniProt P00742); test: Inhibition of factor 10a (unknown origin) at IC90 preincubated for 1 min followed by chromogenic substrate addition and measured for 2 mins in presence of AT-III relative to control; details: time 3.0 min
[6] = target: Coagulation factor X (Homo sapiens) (UniProt P00742); test: Inhibition of factor 10a (unknown origin) at IC50 preincubated for 1 min followed by chromogenic substrate addition and measured for 2 mins; details: time 3.0 min
Plasma [7] = test: Anticoagulation activity in human plasma assessed as drug level causing 20 times doubling of APTT by measuring activity potency of oligosaccharides multiplied by the percentage of oligosaccharides in dHG-5 preincubated for 2 mins followed by APTT reagent and measured after 3 mins by coagulometric method relative to dHG-5; type: functional; details: time 5 min
[8] = target: T2, Coagulation factor VII (Homo sapiens); test: Inhibition of factor 7a (unknown origin) at IC50 using pefachrome factor VIIa as substrate preincubated for 1 min followed by chromogenic substrate addition and measured for 2 mins; details: time 3.0 min
Rattus norvegicus [9] = test: Antithrombotic activity in thromboplastin and stasis-induced Sprague-Dawley rat deep venous thrombosis model assessed as reduction in venous thrombosis at 3.64 mg/kg, sc administered 1 hr prior to thromboplastin addition for 20 secs followed by establishment of stasis for 20 mins relative to dHG-5; type: functional; details: time 80.33 min, 1.339 h
[10] = target: Coagulation factor X (Homo sapiens) (UniProt P00742); test: Inhibition of factor 10a (unknown origin) at IC50 preincubated for 1 min followed by chromogenic substrate addition and measured for 2 mins in presence of AT-III; details: time 3.0 min
[11] = target: Prothrombin (Homo sapiens) (UniProt P00734); test: Inhibition of factor 2a (unknown origin) at IC50 preincubated for 1 min followed by chromogenic substrate addition and measured for 2 mins in presence of AT-III; details: time 3.0 min
Rattus norvegicus [12] = test: Antithrombotic activity in thromboplastin and stasis-induced Sprague-Dawley rat deep venous thrombosis model assessed as reduction in venous thrombosis by measuring activity potency of oligosaccharides multiplied by the percentage of oligosaccharides in dHG-5 at 3.64 mg/kg, sc administered 1 hr prior to thromboplastin addition for 20 secs followed by establishment of stasis for 20 mins relative …; type: functional; details: time 80.33 min, 1.339 h
[13] = target: T3, Coagulation factor XII (Homo sapiens) (UniProt P00748); test: Inhibition of factor 12a (unknown origin) at IC50 using kallikrein chromogenic substrate preincubated for 1 min followed by chromogenic substrate addition and measured for 2 mins; details: time 3.0 min
T3 sequence (whole entry): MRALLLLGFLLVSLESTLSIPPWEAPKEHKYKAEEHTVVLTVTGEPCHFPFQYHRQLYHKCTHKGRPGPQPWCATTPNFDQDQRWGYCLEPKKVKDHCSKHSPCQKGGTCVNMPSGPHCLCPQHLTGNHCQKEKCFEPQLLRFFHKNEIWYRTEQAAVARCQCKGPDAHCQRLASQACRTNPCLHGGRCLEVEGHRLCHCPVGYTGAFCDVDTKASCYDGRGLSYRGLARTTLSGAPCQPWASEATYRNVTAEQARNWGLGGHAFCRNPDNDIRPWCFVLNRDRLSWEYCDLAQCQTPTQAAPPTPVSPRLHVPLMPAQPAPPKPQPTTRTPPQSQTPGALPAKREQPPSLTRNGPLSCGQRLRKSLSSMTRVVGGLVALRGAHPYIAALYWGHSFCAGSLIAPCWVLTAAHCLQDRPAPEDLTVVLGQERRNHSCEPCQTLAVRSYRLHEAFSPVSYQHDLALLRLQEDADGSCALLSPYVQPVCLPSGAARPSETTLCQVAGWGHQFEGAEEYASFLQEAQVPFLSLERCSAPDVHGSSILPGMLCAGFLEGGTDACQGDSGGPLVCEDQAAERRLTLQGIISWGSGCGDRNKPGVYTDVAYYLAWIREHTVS

[14] = target: Prothrombin (Homo sapiens) (UniProt P00734); test: Inhibition of factor 2a (unknown origin) at IC50 preincubated for 1 min followed by chromogenic substrate addition and measured for 2 mins; details: time 3.0 min
[15] = target: Coagulation factor XI (Homo sapiens) (UniProt P03951); test: Inhibition of factor 11a (unknown origin) at IC90 using S-2366 as substrate preincubated for 1 min followed by chromogenic substrate addition and measured for 2 mins in presence of AT-III; details: time 3.0 min
Coagulation factor IX [16] = target: T4, Coagulation factor IX (Homo sapiens, UniProt P00740); test: Inhibition of factor 9a (unknown origin) binding to immobilized biotinylated oHG-11 assessed as activity potency of oligosaccharides multiplied by the percentage of oligosaccharides in dHG-5 by biolayer interferometry relative to dHG-5
Coagulation factor IX [17] = target: T4, Coagulation factor IX; test: Inhibition of factor 9a (unknown origin) binding to immobilized biotinylated oHG-11 by biolayer interferometry relative to dHG-5
Plasma [18] = test: Anticoagulation activity in human plasma assessed as drug level causing 20 times doubling of APTT preincubated for 2 mins followed by APTT reagent and measured after 3 mins by coagulometric method relative to dHG-5; type: functional; details: time 5 min
[19] = target: Coagulation factor XI (Homo sapiens) (UniProt P03951); test: Inhibition of factor 11a (unknown origin) at IC50 using S-2366 as substrate preincubated for 1 min followed by chromogenic substrate addition and measured for 2 mins in presence of AT-III; details: time 3.0 min
[20] = target: Coagulation factor XI (Homo sapiens) (UniProt P03951); test: Inhibition of factor 11a (unknown origin) at IC50 using S-2366 as substrate preincubated for 1 min followed by chromogenic substrate addition and measured for 2 mins; details: time 3.0 min
[21] = target: T3, Coagulation factor XII (Homo sapiens); test: Inhibition of factor 12a (unknown origin) at IC50 using kallikrein chromogenic substrate preincubated for 1 min followed by chromogenic substrate addition and measured for 2 mins in presence of AT-III; details: time 3.0 min
Plasma [22] = test: Induction of platelet aggregation in human platelet rich plasma at plasma peak concentration of 10 times anti-thrombosis ED50 measured after 10 mins by light transmission aggregometry
Rattus norvegicus [23] = test: Antithrombotic activity in thromboplastin and stasis-induced Sprague-Dawley rat deep venous thrombosis model assessed as reduction in venous thrombosis by measuring activity potency of oligosaccharides multiplied by the percentage of oligosaccharides in dHG-5 at 2.7 mg/kg, sc administered 1 hr prior to thromboplastin addition for 20 secs followed by establishment of stasis for 20 mins relative to dHG-5; type: functional; details: time 80.33 min, 1.339 h
Rattus norvegicus [24] = test: Antithrombotic activity in thromboplastin and stasis-induced Sprague-Dawley rat deep venous thrombosis model assessed as reduction in venous thrombosis at 2.7 mg/kg, sc administered 1 hr prior to thromboplastin addition for 20 secs followed by establishment of stasis for 20 mins relative to dHG-5; type: functional; details: time 80.33 min, 1.339 h
Plasma [25] = test: Induction of platelet aggregation in rat wash platelet at plasma peak concentration of 10 times anti-thrombosis ED50 measured after 10 mins by light transmission aggregometry

T4 sequence (P00740 47-191 limits assumed): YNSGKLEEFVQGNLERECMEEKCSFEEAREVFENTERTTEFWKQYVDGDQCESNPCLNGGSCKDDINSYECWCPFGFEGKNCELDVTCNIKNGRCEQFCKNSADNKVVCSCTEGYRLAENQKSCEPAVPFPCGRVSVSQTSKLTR
T4 sequence (P00740 227-461 limits assumed): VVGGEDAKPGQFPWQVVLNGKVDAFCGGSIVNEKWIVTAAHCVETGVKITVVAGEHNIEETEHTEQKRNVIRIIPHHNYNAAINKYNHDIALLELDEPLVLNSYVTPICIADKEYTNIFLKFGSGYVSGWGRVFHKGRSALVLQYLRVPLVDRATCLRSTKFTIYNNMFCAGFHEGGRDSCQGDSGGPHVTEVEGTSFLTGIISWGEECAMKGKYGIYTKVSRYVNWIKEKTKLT
Sequence of Coagulation factor XI (Homo sapiens) (P03951 19-387 limits assumed): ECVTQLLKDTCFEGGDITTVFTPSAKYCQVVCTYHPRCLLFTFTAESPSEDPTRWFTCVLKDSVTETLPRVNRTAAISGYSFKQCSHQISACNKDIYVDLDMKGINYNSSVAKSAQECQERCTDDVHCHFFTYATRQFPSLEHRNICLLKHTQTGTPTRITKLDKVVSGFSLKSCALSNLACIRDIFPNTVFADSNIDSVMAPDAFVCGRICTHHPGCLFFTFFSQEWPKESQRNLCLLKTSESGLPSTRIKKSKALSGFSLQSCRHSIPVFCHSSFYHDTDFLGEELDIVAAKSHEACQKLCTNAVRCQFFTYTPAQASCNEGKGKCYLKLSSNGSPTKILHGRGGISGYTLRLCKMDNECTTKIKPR
Sequence of Coagulation factor XI (Homo sapiens) (P03951 388-625 limits assumed): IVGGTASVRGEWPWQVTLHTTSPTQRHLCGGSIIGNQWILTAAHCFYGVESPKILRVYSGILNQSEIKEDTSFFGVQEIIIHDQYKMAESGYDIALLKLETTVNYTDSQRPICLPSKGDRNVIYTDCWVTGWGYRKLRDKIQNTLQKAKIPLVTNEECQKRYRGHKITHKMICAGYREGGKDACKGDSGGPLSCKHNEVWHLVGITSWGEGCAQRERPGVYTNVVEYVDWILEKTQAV
Sequence of Coagulation factor X (Homo sapiens) (P00742 41-179 limits assumed): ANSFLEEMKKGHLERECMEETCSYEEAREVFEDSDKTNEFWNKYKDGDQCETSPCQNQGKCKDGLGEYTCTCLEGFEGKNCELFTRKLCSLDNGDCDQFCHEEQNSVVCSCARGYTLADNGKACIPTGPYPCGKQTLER
Sequence of Coagulation factor X (Homo sapiens) (P00742 235-488 limits assumed): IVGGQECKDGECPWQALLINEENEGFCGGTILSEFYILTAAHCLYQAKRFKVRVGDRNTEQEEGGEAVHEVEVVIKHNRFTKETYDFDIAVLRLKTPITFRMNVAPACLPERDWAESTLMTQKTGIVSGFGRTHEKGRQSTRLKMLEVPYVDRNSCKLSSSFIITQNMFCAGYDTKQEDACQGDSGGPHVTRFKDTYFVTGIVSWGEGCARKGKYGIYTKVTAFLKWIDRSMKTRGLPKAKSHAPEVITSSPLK

| Ratio [1] [U] | Ratio [2] [U] | inhibition [3] | inhibition [4] | inhibition [5] [%] | inhibition [6] | inhibition (active/not active) [8] | inhibition [10] | inhibition [11] | inhibition [13] | inhibition [14] | inhibition [15] | Ratio (Coagulation factor IX [16]) [U] | Ratio (Coagulation factor IX [17]) [U] | inhibition [19] | inhibition [20] | inhibition [21] | SMILES | Ratio (Plasma [7]) [U] | Ratio (Plasma [18]) [U] | also measured |
| --- | --- | --- | --- | --- | --- | --- | --- | --- | --- | --- | --- | --- | --- | --- | --- | --- | --- | --- | --- | --- |
| 5.02 | 28.6 | Active | inactive | 14.2 | inactive | inactive | inactive | inactive | inactive | inactive | Active | 3.66 | 20.9 | inactive | inactive | inactive | CC(=O)N[C@H]1[C@H](O[C@@H]([C@H](O[C@@H]2O[C@@H](C)[C@@H](OS(=O)(=O)[O-])[C@@H](O)[C@@H]2OS(=O)(=O)O)[C@@H](O)CO)[C@H](O)C(=O)[O-])O[C@H](COS(=O)(=O)[O-])[C@H](OS(=O)(=O)[O-])[C@@H]1O[C@@H]1O[C@H](C(=O)[O-])[C@@H](O[C@@H]2O[C@H](COS(=O)(=O)[O-])[C@H](OS(=O)(=O)[O-])[C@H](O[C@@H]3O[C@H](C(=O)[O-])[C@@H](O[C@@H]4O[C@H](COS(=O)(=O)[O-])[C@H](OS(=O)(=O)[O-])[C@H](O[C@@H]5OC(C(=O)[O-])=C[C@H](O[C@@H]6O[C@@H](C)[C@@H](OS(=O)(=O)[O-])[C@@H](OS(=O)(=O)O)[C@@H]6O)[C@H]5O)[C@H]4NC(C)=O)[C@H](O[C@@H]4O[C@@H](C)[C@@H](OS(=O)(=O)[O-])[C@@H](O)[C@@H]4OS(=O)(=O)O)[C@H]3O)[C@H]2NC(C)=O)[C@H](O[C@@H]2O[C@@H](C)[C@@H](OS(=O)(=O)[O-])[C@@H](O)[C@@H]2OS(=O)(=O)O)[C@H]1O.[Na+].[Na+].[Na+].[Na+].[Na+].[Na+].[Na+].[Na+].[Na+].[Na+].[Na+].[Na+].[Na+].[Na+] | 4.92 | 28.01 | Ratio (Rattus norvegicus [9]): 48.6 U; Ratio (Rattus norvegicus [12]): 8.55 U |
| 8.26 | 51.8 | Active | inactive | 14.2 | inactive | inactive | inactive | inactive | inactive | inactive | Active | 5.72 | 35.9 | inactive | inactive | inactive | CC(=O)N[C@H]1[C@H](O[C@@H]([C@H](O[C@@H]2O[C@@H](C)[C@@H](OS(=O)(=O)[O-])[C@@H](OS(=O)(=O)O)[C@@H]2O)[C@@H](O)CO)[C@H](O)C(=O)[O-])O[C@H](COS(=O)(=O)[O-])[C@H](OS(=O)(=O)[O-])[C@@H]1O[C@@H]1O[C@H](C(=O)[O-])[C@@H](O[C@@H]2O[C@H](COS(=O)(=O)[O-])[C@H](OS(=O)(=O)[O-])[C@H](O[C@@H]3O[C@H](C(=O)[O-])[C@@H](O[C@@H]4O[C@H](COS(=O)(=O)[O-])[C@H](OS(=O)(=O)[O-])[C@H](O[C@@H]5O[C@H](C(=O)[O-])[C@@H](O[C@@H]6O[C@H](COS(=O)(=O)[O-])[C@H](OS(=O)(=O)[O-])[C@H](O[C@@H]7OC(C(=O)[O-])=C[C@H](O[C@@H]8O[C@@H](C)[C@@H](OS(=O)(=O)[O-])[C@@H](OS(=O)(=O)O)[C@@H]8O)[C@H]7O)[C@H]6NC(C)=O)[C@H](O[C@@H]6O[C@@H](C)[C@@H](OS(=O)(=O)[O-])[C@@H](OS(=O)(=O)O)[C@@H]6O)[C@H]5O)[C@H]4NC(C)=O)[C@H](O[C@@H]4O[C@@H](C)[C@@H](OS(=O)(=O)[O-])[C@@H](OS(=O)(=O)O)[C@@H]4O)[C@H]3O)[C@H]2NC(C)=O)[C@H](O[C@@H]2O[C@@H](C)[C@@H](OS(=O)(=O)[O-])[C@@H](OS(=O)(=O)O)[C@@H]2O)[C@H]1O.[Na+].[Na+].[Na+].[Na+].[Na+].[Na+].[Na+].[Na+].[Na+].[Na+].[Na+].[Na+].[Na+].[Na+].[Na+].[Na+].[Na+].[Na+] | 9.73 | 61.09 | Activity (Plasma [22]): Not Active; Ratio (Rattus norvegicus [23]): 18.12 U; Ratio (Rattus norvegicus [24]): 113.95 U; Activity (Plasma [25]): Not Active |
